Tests used:
[1] = tested on: mice; assay: Acute toxicity in mice after oral administration; assay type: in vivo
Text: (§1) The acute toxicity of compounds of this invention has been evaluated after oral administration in mice

[2] = biological target: T1, amino peptidase (Rattus norvegicus, UniProt F1M9V7); assay: Inhibition of amino peptidase, soluble fraction of rat striata, 3H-Tyr-Leucine-Enkephalin substrate; assay type: biochemical, rats; settings: read-out: Drug concentration which inhibits 50% of the enzymatic activities (IC50(M)), Amino Peptidase
T1 construct: as enzyme source it has been used the soluble fraction of point (a) above; from tissue; host or cells: rat striatum, soluble fraction
T1 sequence (F1M9V7 1-920): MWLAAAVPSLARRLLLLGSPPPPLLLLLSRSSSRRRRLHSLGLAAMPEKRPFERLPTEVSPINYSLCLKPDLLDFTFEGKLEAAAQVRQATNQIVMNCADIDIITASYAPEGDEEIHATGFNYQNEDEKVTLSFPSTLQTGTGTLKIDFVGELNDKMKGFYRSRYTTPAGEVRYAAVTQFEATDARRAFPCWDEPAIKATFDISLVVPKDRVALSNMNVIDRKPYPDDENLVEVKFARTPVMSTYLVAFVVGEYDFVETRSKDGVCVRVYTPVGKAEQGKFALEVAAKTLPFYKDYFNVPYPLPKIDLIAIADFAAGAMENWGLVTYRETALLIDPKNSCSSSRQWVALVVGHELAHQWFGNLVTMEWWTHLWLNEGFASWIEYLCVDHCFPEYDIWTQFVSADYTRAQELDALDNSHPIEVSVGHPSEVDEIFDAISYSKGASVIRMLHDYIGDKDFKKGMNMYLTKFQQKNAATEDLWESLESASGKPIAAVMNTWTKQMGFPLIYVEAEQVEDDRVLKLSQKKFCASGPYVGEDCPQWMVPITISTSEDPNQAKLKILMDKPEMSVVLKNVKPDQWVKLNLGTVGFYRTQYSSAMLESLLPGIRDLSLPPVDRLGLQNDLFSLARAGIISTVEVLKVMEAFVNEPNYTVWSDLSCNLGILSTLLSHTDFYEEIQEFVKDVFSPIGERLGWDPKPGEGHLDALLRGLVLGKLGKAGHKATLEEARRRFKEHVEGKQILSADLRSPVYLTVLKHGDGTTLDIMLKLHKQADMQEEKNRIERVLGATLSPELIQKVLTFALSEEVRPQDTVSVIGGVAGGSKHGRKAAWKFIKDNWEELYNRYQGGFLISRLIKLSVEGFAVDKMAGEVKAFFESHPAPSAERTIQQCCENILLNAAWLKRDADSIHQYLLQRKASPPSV
Text: The evaluation of the inhibitory effect on enkephalinase and on aminopeptidase activity respectively has been made as follows: […]

[3] = biological target: T2, enkephalinase (Rattus norvegicus, UniProt P07861); assay: Inhibition of enkephalinase, particulate fraction of rat striata, 3H-Tyr-Leucine-Enkephalin substrate; assay type: biochemical, rats; settings: read-out: Drug concentration which inhibits 50% of the enzymatic activities (IC50(M)), Enkephalinase
T2 construct: enzymatic preparation extracted from the particulate fraction of striata of rats; from tissue; host or cells: rat striatum, particulate fraction purified on discontinuous sucrose gradient
T2 sequence (P07861 1-750): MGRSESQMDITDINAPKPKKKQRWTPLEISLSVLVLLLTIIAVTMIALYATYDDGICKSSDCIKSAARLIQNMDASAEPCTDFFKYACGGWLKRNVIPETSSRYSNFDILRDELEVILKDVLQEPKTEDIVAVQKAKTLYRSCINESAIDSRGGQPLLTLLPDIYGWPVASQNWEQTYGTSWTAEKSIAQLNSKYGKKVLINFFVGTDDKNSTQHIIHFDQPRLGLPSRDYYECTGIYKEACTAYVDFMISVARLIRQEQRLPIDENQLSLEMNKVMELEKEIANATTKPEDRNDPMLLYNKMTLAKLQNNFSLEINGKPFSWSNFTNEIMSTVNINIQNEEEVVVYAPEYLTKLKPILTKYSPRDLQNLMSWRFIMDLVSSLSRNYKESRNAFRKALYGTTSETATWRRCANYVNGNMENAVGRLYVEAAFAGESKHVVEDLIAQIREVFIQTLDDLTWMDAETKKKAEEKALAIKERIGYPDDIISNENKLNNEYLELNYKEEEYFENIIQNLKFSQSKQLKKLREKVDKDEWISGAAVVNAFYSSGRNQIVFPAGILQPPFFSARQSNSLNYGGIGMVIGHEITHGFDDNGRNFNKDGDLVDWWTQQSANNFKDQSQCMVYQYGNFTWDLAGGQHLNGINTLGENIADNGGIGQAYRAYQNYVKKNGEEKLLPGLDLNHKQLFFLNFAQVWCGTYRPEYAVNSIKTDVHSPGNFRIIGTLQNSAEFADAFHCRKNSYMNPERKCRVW
Text: The evaluation of the inhibitory effect on enkephalinase and on aminopeptidase activity respectively has been made as follows:
(a) enkephalinase: it has been used the enzymatic preparation extracted from the particulate fraction of striata of rats purified on discontinous gradient of sucrose (Blumberg et al., Life Sci., 28, (1981), 301); the evaluation of the enzymatic activity has been made using ^3 H-Tyr-Leucine-Enkephalin as substrate (Vogel and Alstein, FEBS Lett., 80, (1977), 332).

[4] = biological target: T3, enkephalinase (Mus musculus, UniProt Q61391); assay: Potentiation of Met-Enk analgesia in mice, hot plate test, intracerebral administration; assay type: in vivo
T3 construct: potentiation of the analgesic effect induced in mice by Methionine-Enkephalin; from tissue; host or cells: endogenous enzyme in the brain of living mice (intracerebral administration)
T3 sequence (Q61391 1-750): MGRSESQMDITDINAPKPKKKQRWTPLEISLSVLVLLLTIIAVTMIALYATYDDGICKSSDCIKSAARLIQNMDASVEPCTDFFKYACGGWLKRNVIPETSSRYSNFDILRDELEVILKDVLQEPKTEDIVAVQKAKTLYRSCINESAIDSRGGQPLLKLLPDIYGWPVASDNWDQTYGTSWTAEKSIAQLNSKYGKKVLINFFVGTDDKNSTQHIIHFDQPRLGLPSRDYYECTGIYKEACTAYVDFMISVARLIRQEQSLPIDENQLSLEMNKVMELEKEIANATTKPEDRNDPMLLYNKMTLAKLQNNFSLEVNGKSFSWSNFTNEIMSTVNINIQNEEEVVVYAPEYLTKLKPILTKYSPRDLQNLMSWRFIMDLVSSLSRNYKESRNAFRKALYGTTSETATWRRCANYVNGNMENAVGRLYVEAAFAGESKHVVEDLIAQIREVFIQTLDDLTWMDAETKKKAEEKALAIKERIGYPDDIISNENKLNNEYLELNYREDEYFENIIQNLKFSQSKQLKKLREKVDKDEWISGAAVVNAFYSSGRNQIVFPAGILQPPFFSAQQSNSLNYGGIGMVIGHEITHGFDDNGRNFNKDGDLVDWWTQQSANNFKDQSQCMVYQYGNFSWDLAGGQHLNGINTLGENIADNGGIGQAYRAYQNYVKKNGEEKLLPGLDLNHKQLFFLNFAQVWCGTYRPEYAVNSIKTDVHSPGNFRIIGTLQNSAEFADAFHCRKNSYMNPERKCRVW

[5] = Acute toxicity in mice after oral administration; assay type: in vivo; settings: mouse, in vivo
Text: as §1

[6] = Met-Enk 50 μg/ic + compound 12,5 μg/ic
[7] = Met-Enk 50 μg/ic + compound 25 μg/ic
[8] = Met-Enk 50 μg/ic + compound 50 μg/ic

2-(2-acetylthiomethyl-propionamido)-picolinic acid [Example 26]
LD50 [1]: 421 mg/kg

CC(C)C[C@H](NC(=O)[C@@H](O)[C@H](N)Cc1ccccc1)C(=O)O [Bestatin, reference compound]
IC50 [2]: 2e-07 M | IC50 [3]: > 1e-06 M

C[C@H](CS)C(=O)N1CCC[C@H]1C(=O)O [Captopril, 1,-(3-mercapto-2-methyl-1-oxopropyl)-L-proline, reference compound]
IC50 [2]: > 1e-06 M | IC50 [3]: > 1e-06 M

CC(CS)C(=O)Nc1ccc(C(=O)O)cn1 (stereo not shown) [Example 8, 6-(2-mercaptomethyl-propionamido)-nicotinic acid]
IC50 [2]: > 1e-06 M | IC50 [3]: 5e-07 M | Latency Time X ± SE (sec) [4, 6]: 19,6 ± 2,1 sec

COC(=O)c1cncc(NC(=O)C(C)CS)c1 (stereo not shown) [Example 13, methyl 5-(2-mercaptomethyl-propionamido)-nicotinate]
IC50 [2]: > 1e-06 M | IC50 [3]: 2e-07 M

CC(CS)C(=O)Nc1cncc(C(=O)O)c1 (stereo not shown) [Example 14, 5-(2-mercaptomethyl-propionamido)-nicotinic acid]
IC50 [2]: > 1e-06 M | IC50 [3]: 5e-08 M | Latency Time X ± SE (sec) [4, 7]: 27,7 ± 1,5 sec

COC(=O)c1cncc(N(C)C(=O)C(C)CSC(C)=O)c1 (stereo not shown) [Example 16, methyl 5-(2-acetylthiomethyl-N-methyl-propionamido)-nicotinate]
IC50 [2]: > 1e-06 M | IC50 [3]: 7e-07 M | Latency Time X ± SE (sec) ([4]; Met-Enk 50 μg/ic + compound 5 μg/ic): 14,8 ± 1,1 sec

CC(CS)C(=O)N(C)c1cncc(C(=O)O)c1 (stereo not shown) [Example 17, 5-(2-mercaptomethyl-N-methyl-propionamido)-nicotinic acid]
IC50 [2]: > 1e-06 M | IC50 [3]: 1e-07 M | Latency Time X ± SE (sec) [4, 8]: 13,8 ± 1,4 sec

C[C@H](CSC(=O)c1ccccc1)C(=O)Nc1cncc(C(=O)O)c1 [Example 18a, S(-)-5-(2-benzoylthiomethyl-propionamido)-nicotinic acid]
IC50 [2]: > 1e-06 M | IC50 [3]: 3e-07 M | Latency Time X ± SE (sec) [4, 8]: 13,1 ± 0,9 sec

CC(CS)C(=O)Nc1ccc(C(=O)O)nc1 (stereo not shown) [Example 23, 5-(2-mercaptomethyl-propionamido)-picolinic acid]
IC50 [2]: > 1e-06 M | IC50 [3]: 2e-07 M | Latency Time X ± SE (sec) [4, 7]: 26,1 ± 2,1 sec

COC(=O)c1ncccc1NC(=O)C(C)CSC(C)=O (stereo not shown) [Example 24, methyl 3-(2-acetylthiomethyl-propionamido)-picolinate]
LD50 [5]: 390 mg/kg

COC(=O)c1ncccc1NC(=O)C(C)CS (stereo not shown) [Example 25, methyl 3-(2-mercaptomethyl-propionamido)-picolinate]
LD50 [5]: 329 mg/kg

O=C(O)c1ccnc(NC(=O)C(CS)Cc2ccccc2)c1 (stereo not shown) [Example 28, 2-(2-mercaptomethyl-3-phenyl-propionamido)-isonicotinic acid]
IC50 [2]: > 1e-06 M | IC50 [3]: 1.8e-09 M | Latency Time X ± SE (sec) [4, 8]: 27,0 ± 1,6 sec

CC(CS)C(=O)Nc1cc(C(=O)O)ccn1 (stereo not shown) [Example 31, 2-(2-mercaptomethyl-propionamido)-isonicotinic acid]
IC50 [2]: > 1e-06 M | IC50 [3]: 5e-07 M | Latency Time X ± SE (sec) [4, 6]: 15,4 ± 1,2 sec

Methionine-Enkephalin [Met--Enk, reference compound]
Latency Time X ± SE (sec) ([4]; Met-Enk alone 50 μg/ic): 14,7 ± 1,3 sec

From US4528296A, “Derivatives of aminopyridinecarboxylic acids and pharmaceutical compositions containing them” (Simes, Societa Italiana Medicinalle Sintetici, priority 1982, dated 1985)
